In patent US20240308992A1 (Biopolar Youtang(Guangdong) Pharmaceutical Co., Ltd., priority 2021, published 2024):

The molecules below were run against T1, Drak2 (Homo sapiens, UniProt O94768) (assay: Drak2 activity test, ADP-Glo kinase assay (Promega)). Conditions: inhibition of Drak2 kinase activity, 2 h room temperature, activity range classes, read-out: IC50_Drak2.
T1 sequence (O94768 1-372): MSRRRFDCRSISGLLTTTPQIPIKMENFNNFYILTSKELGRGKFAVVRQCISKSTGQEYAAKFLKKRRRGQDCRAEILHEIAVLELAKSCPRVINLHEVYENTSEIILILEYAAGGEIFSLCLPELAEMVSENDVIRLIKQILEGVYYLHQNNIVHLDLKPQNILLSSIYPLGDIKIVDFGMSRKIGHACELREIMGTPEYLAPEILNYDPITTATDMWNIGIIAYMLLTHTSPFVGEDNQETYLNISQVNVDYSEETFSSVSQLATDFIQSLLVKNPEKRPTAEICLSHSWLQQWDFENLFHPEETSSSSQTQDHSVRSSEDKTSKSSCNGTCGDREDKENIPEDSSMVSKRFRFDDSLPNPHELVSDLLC
Assay type: biochemical
With `CCCCC(=O)Nc1csc(-c2cncc(-c3ccc(C(=O)Nc4cn(C)c(C(=O)OC)n4)c(OC)c3)n2)c1` [Example B22, methyl 4-(2-methoxy-4-(6-(4-pentanamidothiophen-2-yl)pyrazin-2-yl)benzamido)-1-methyl-1H-imidazole-2-carboxylate] the IC50 was 101 to 1000 nM.
Work on `CCCCC(=O)Nc1csc(-c2cncc(-c3ccc(C(=O)Nc4nnco4)c(OC)c3)n2)c1` [Example B23, 2-methoxy-4-(6-(4-pentanamidothiophen-2-yl)pyrazin-2-yl)-N-(1,3,4-oxadiazol-2-yl)benzamide] yielded an IC50 of 11 to 100 nM.
For `CCCCC(=O)Nc1csc(-c2cncc(-c3ccc(C(=O)Nc4nncs4)c(OC)c3)n2)c1` [Example B24, 2-methoxy-4-(6-(4-pentanamidothiophen-2-yl)pyrazin-2-yl)-N-(1,3,4-thiadiazol-2-yl)benzamide], the IC50 was 1000 to 10000 nM.
In the case of `COc1cc(-c2cncc(-c3cc(NC(=O)CC4CC4)cs3)n2)ccc1C(=O)Nc1nnnn1C` [Example B25, 2-methoxy-4-(6-(4-(2-cyclopropylacetamido)thiophen-2-yl)pyrazin-2-yl)-N-(1-methyl-1H-tetrazol-5-yl)benzamide], the IC50 is reported as 11 to 100 nM.
`COc1cc(-c2cncc(-c3cc(NC(=O)CC4CCC4)cs3)n2)ccc1C(=O)Nc1nnnn1C` [Example B26, 2-methoxy-4-(6-(4-(2-cyclobutylacetamido)thiophen-2-yl)pyrazin-2-yl)-N-(1-methyl-1H-tetrazol-5-yl)benzamide] showed an IC50 of 11 to 100 nM.
With `COc1cc(-c2cncc(-c3cc(NC(=O)CC4CCCC4)cs3)n2)ccc1C(=O)Nc1nnnn1C` [Example B27, 2-methoxy-4-(6-(4-(2-cyclopentylacetamido)thiophen-2-yl)pyrazin-2-yl)-N-(1-methyl-1H-tetrazol-5-yl)benzamide] the IC50 was 11 to 100 nM.
With `COc1cc(-c2cncc(-c3cc(NC(=O)CC4CCCCC4)cs3)n2)ccc1C(=O)Nc1nnnn1C` [Example B28, 2-methoxy-4-(6-(4-(2-cyclohexylacetamido)thiophen-2-yl)pyrazin-2-yl)-N-(1-methyl-1H-tetrazol-5-yl)benzamide] the IC50 was 101 to 1000 nM.
`CCCCC(=O)Nc1csc(-c2cncc(-c3ccc(C(=O)N4CCOCC4)c(OC)c3)n2)c1` [Example B29, N-(5-(6-(3-methoxy-4-(morpholine-4-carbonyl)phenyl)pyrazin-2-yl)thiophen-3-yl)pentanamide] was tested, and the IC50 was 11 to 100 nM.
For `CCCCC(=O)Nc1csc(-c2cncc(-c3ccc(CN4CCOCC4)c(OC)c3)n2)c1` [Example B30, N-(5-(6-(3-methoxy-4-(morpholinomethyl)phenyl)pyrazin-2-yl)thiophen-3-yl)pentanamide], the IC50 was 101 to 1000 nM.
For `COc1cc(-c2cncc(-c3cc(NC(=O)CC4CC4)cs3)n2)ccc1C(=O)N1CCOCC1` [Example B31, 2-cyclopropyl-N-(5-(6-(3-methoxy-4-(morpholine-4-carbonyl)phenyl)pyrazin-2-yl)thiophen-3-yl)acetamide], the IC50 was 11 to 100 nM.
Work on `COc1cc(-c2cncc(-c3cc(NC(=O)CC4CCC4)cs3)n2)ccc1C(=O)N1CCOCC1` [Example B32, 2-cyclobutyl-N-(5-(6-(3-methoxy-4-(morpholine-4-carbonyl)phenyl)pyrazin-2-yl)thiophen-3-yl)acetamide] yielded an IC50 of 11 to 100 nM.
`COc1cc(-c2cncc(-c3cc(NC(=O)CC4CCCC4)cs3)n2)ccc1C(=O)N1CCOCC1` [Example B33, 2-cyclopentyl-N-(5-(6-(3-methoxy-4-(morpholine-4-carbonyl)phenyl)pyrazin-2-yl)thiophen-3-yl)acetamide] was tested, and the IC50 was 11 to 100 nM.
For `COc1cc(-c2cncc(-c3cc(NC(=O)CC4CC4)cs3)n2)ccc1CN1CCOCC1` [Example B34, 2-cyclopropyl-N-(5-(6-(3-methoxy-4-(morpholinomethyl)phenyl)pyrazin-2-yl)thiophen-3-yl)acetamide], the IC50 was 101 to 1000 nM.
`COc1cc(-c2cncc(-c3cc(NC(=O)CC4CCC4)cs3)n2)ccc1CN1CCOCC1` [Example B35, 2-cyclobutyl-N-(5-(6-(3-methoxy-4-(morpholinomethyl)phenyl)pyrazin-2-yl)thiophen-3-yl)acetamide] gave an IC50 of 101 to 1000 nM.
Work on `COc1cc(-c2cncc(-c3cc(NC(=O)CC4CCCC4)cs3)n2)ccc1CN1CCOCC1` [Example B36, 2-cyclopentyl-N-(5-(6-(3-methoxy-4-(morpholinomethyl)phenyl)pyrazin-2-yl)thiophen-3-yl)acetamide] yielded an IC50 of 101 to 1000 nM.
For `CCCCC(=O)Nc1csc(-c2cncc(-c3ccc(C(=O)N4CCN(C)CC4)c(OC)c3)n2)c1` [Example B37, N-(5-(6-(3-methoxy-4-(4-methylpiperazine-1-carbonyl)phenyl)pyrazin-2-yl)thiophen-3-yl)pentanamide], the IC50 was 11 to 100 nM.
`COc1cc(-c2cncc(-c3cc(NC(=O)CC4CC4)cs3)n2)ccc1C(=O)N1CCN(C)CC1` [Example B38, 2-cyclopropyl-N-(5-(6-(3-methoxy-4-(4-methylpiperazine-1-carbonyl)phenyl)pyrazin-2-yl)thiophen-3-yl)acetamide] was tested, and the IC50 was 11 to 100 nM.
`COc1cc(-c2cncc(-c3cc(NC(=O)CC4CCC4)cs3)n2)ccc1C(=O)N1CCN(C)CC1` [Example B39, 2-cyclobutyl-N-(5-(6-(3-methoxy-4-(4-methylpiperazine-1-carbonyl)phenyl)pyrazin-2-yl)thiophen-3-yl)acetamide] was tested, and the IC50 was 11 to 100 nM.
Molecule `COc1cc(-c2cncc(-c3cc(NC(=O)CC4CCCC4)cs3)n2)ccc1C(=O)N1CCN(C)CC1` [Example B40, 2-cyclopentyl-N-(5-(6-(3-methoxy-4-(4-methylpiperazine-1-carbonyl)phenyl)pyrazin-2-yl)thiophen-3-yl)acetamide] has an IC50 of 11 to 100 nM.
`CCCCC(=O)Nc1csc(-c2cncc(-c3ccc(C(=O)Nc4cn(C)nc4OC)c(OC)c3)n2)c1` [Example B41, 2-methoxy-N-(3-methoxy-1-methyl-1H-pyrazol-4-yl)-4-(6-(4-pentanamidothiophen-2-yl)pyrazin-2-yl)benzamide] was tested, and the IC50 was 101 to 1000 nM.
For `COc1cc(-c2cncc(-c3cc(NC(=O)CC4CC4)cs3)n2)ccc1C(=O)Nc1cn(C)nc1OC` [Example B42, 4-(6-(4-(2-cyclopropylacetamido)thiophen-2-yl)pyrazin-2-yl)-2-methoxy-N-(3-methoxy-1-methyl-1H-pyrazol-4-yl)benzamide], the IC50 was 101 to 1000 nM.
`COc1cc(-c2cncc(-c3cc(NC(=O)CC4CCC4)cs3)n2)ccc1C(=O)Nc1cnn(C)c1OC` [Example B43, 4-(6-(4-(2-cyclobutylacetamido)thiophen-2-yl)pyrazin-2-yl)-2-methoxy-N-(5-methoxy-1-methyl-1H-pyrazol-4-yl)benzamide] showed an IC50 of 101 to 1000 nM.
Work on `COc1cc(-c2cncc(-c3cc(NC(=O)CC4CCCC4)cs3)n2)ccc1C(=O)Nc1cnn(C)c1OC` [Example B44, 4-(6-(4-(2-cyclopentylacetamido)thiophen-2-yl)pyrazin-2-yl)-2-methoxy-N-(5-methoxy-1-methyl-1H-pyrazol-4-yl)benzamide] yielded an IC50 of 101 to 1000 nM.
`COc1cc(-c2cncc(-c3cc(NC(=O)CC45CC(C4)C5)cs3)n2)ccc1C(=O)N1CCOCC1` [Example B45, 2-(bicyclo[1.1.1]pentan-1-yl)-N-(5-(6-(3-methoxy-4-(morpholine-4-carbonyl)phenyl)pyrazin-2-yl)thiophen-3-yl)acetamide] was tested, and the IC50 was 11 to 100 nM.
`COc1cc(-c2cncc(-c3cc(NC(=O)CC4CC4)cs3)n2)ccc1C(=O)Nc1nnco1` [Example B46, 4-(6-(4-(2-cyclopropylacetamido)thiophen-2-yl)pyrazin-2-yl)-2-methoxy-N-(1,3,4-oxadiazol-2-yl)benzamide] showed an IC50 of 11 to 100 nM.
For `CCCCC(=O)Nc1csc(-c2cncc(-c3ccc(C(=O)N4CCN(C5CCN(C)CC5)CC4)c(OC)c3)n2)c1` [Example B47, N-(5-(6-(3-methoxy-4-(4-(1-methylpiperidin-4-yl)piperazine-1-carbonyl)phenyl)pyrazin-2-yl)thiophen-3-yl)pentanamide], the IC50 was 11 to 100 nM.
In the case of `COc1cc(-c2cncc(-c3cc(NC(=O)CC4CC4)cs3)n2)ccc1C(=O)N1CCC(OC)CC1` [Example B48, 2-cyclopropyl-N-(5-(6-(3-methoxy-4-(4-methoxypiperidine-1-carbonyl)phenyl)pyrazin-2-yl)thiophen-3-yl)acetamide], the IC50 is reported as 11 to 100 nM.
`COc1cc(-c2cncc(-c3cc(NC(=O)CC4CCC4)cs3)n2)ccc1C(=O)N1CCC(OC)CC1` [Example B49, 2-cyclobutyl-N-(5-(6-(3-methoxy-4-(4-methoxypiperidine-1-carbonyl)phenyl)pyrazin-2-yl)thiophen-3-yl)acetamide] was tested, and the IC50 was 11 to 100 nM.
`COc1cc(-c2cncc(-c3cc(NC(=O)CC4CC4)cs3)n2)ccc1C(=O)N1CCN(C2CCN(C)CC2)CC1` [Example B50, 2-cyclopropyl-N-(5-(6-(3-methoxy-4-(4-(1-methylpiperidin-4-yl)piperazine-1-carbonyl)phenyl)pyrazin-2-yl)thiophen-3-yl)acetamide] showed an IC50 of 11 to 100 nM.
With `COc1cc(-c2cncc(-c3cc(NC(=O)CC4CCC4)cs3)n2)ccc1C(=O)N1CCN(C2CCN(C)CC2)CC1` [Example B51, 2-cyclobutyl-N-(5-(6-(3-methoxy-4-(4-(1-methylpiperidin-4-yl)piperazine-1-carbonyl)phenyl)pyrazin-2-yl)thiophen-3-yl)acetamide] the IC50 was 11 to 100 nM.
`COc1cc(-c2cncc(-c3cc(NC(=O)CC4CCCC4)cs3)n2)ccc1C(=O)N1CCN(C2CCN(C)CC2)CC1` [Example B52, 2-cyclopentyl-N-(5-(6-(3-methoxy-4-(4-(1-methylpiperidin-4-yl)piperazine-1-carbonyl)phenyl)pyrazin-2-yl)thiophen-3-yl)acetamide] showed an IC50 of 11 to 100 nM.
Molecule `CCCCC(=O)Nc1csc(-c2cncc(-c3ccc(C(=O)N4CCC(OC)CC4)c(OC)c3)n2)c1` [Example B53, N-(5-(6-(3-methoxy-4-(4-methoxypiperidine-1-carbonyl)phenyl)pyrazin-2-yl)thiophen-3-yl)pentanamide] has an IC50 of 11 to 100 nM.
